In brackets after ≈: the same amount, converted by molar mass. Read-outs that look alike come from different tables or passages of the source.
Assays:
[1] = tested on: CD3/IL2 stimulated PBMC cells; assay: IFNγ release from CD3/IL2 stimulated PBMC cells (assay (a)); assay type: cell-based; details: Homo sapiens, CD3/IL2 stimulation, 48 h, ELISA
Experimental: (a) IFNγ Release from CD3/IL2 Stimulated PBMC Cells
PBMCs from healthy subjects are separated from whole blood using a density gradient (Lymphoprep, Axis-Shield Healthcare). Cells are added to a 96 well plate, and compound at the desired concentration added 2 hours prior to stimulation with a mixture of monoclonal antibody to CD3 (1 μg/ml, eBioscience) and human recombinant IL2 (10 ng/ml, Peprotech). After 48 hours incubation under normal tissue culture conditions, supernatants are collected and IFNγ release determined by Sandwich ELISA (Duo-set, R&D System). The IC50 is determined from the dose response curve.

Jurkat cells = assay: Cell cytotoxicity assay in Jurkat cells (assay (c)); assay type: cell-based, human; details: 24 h, propidium iodide, normalised to DMSO control
Experimental: (c) Cell Cytotoxicity Assay
1×10^5 Jurkat cells (immortalised human T lymphocytes) are added to the appropriate number of wells of a 96 well plate in 100 μL of media (RPMI supplemented with 10% foetal bovine serum). 1 μL of DMSO control (final concentration 1.0% v/v) or test compound (final concentration 20, 5 or 1 μg/mL) is added to the wells and incubated at 37° C., 5% CO2. After 24 hours, the plate is centrifuged at 1200 rpm for 3 minutes and the supernatant discarded. Cells are then resuspended in 150 μL (final concentration 7.5 μg/mL) of propidium iodide (PI) in PBS and incubated at 37° C., 5% CO2 for 15 minutes. After 15 minutes, cells are analysed by flow cytometry (BD accuri) using the FL3 window. The % viability is calculated as the % of cells that are PI negative in the test wells normalised to the DMSO control.

[2] = Solubility in fasted-state simulated colonic fluid (FaSSCoF) at pH 6.5; assay type: physicochemical; details: 25 °C, pH 6.5, fassgf or other biorelevant, thermodynamic from solid, pH 6.5, 25° C.
Experimental: The solubilities of compounds of the invention in FaSSCoF at pH 6.5 are determined using a modification of a previously-reported procedure (Vertzoni, M., et al. Pharm. Res. 2010, 27, 2187-2196). In place of the bile salt extract employed in the original procedure (which extract is no longer available), the modified procedure uses a mixture of sodium taurochlorate (0.15 g), glycocholic acid (0.15 g), ursodeoxycholic acid (0.05 g), cholic acid (0.05 g), and glycodeoxycholic acid (0.05 g). These five bile acids are ground together with a mortar and pestle to produce a fine white powder that is incorporated into the FaSSCoF, as outlined below.
Tris(hydroxymethyl)aminomethane (Tris; 0.275 g) and maleic acid (0.44 g) are dissolved in water (35 mL) to give a solution whose pH is adjusted to 6.5 by treatment with 0.5M NaOH (ca. 12 mL). The solution is then made up to 50 mL with water. A portion of this Tris/maleate buffer solution (ca. 25 mL) is added to a 0.5 L round-bottomed flask, before being treated with 0.00565 g of the bile acid mixture described above. Solutions of phosphatidylcholine (0.0111 g) in DCM (0.15 mL) and palmitic acid (0.0013 g) in DCM (0.15 mL) are added, then the organic solvent is evaporated off under reduced pressure at 40° C. until a clear solution, with no perceptible DCM odour, is achieved. The volume of the evaporated solution is adjusted to 50 mL by addition of the remainder of Tris/maleate buffer, then BSA (0.115 g) is added, before being dissolved by gentle agitation.
Test compounds are suspended in the pH 6.5 FaSSCoF medium to give a maximum final concentration of 2-10 mg/mL. The suspensions are equilibrated at 25° C. for 24 h, before being filtered through a glass fibre C filter. The filtrates are then diluted as appropriate for injection and quantification by HPLC with reference to a standard. Different volumes of the standard, diluted and undiluted sample solutions are injected and the solubilities are calculated using the peak areas determined by integration of the peak found at the same retention time as the principal peak in the standard injection.

[3] = Systemic pharmacokinetics and total colon tissue distribution after single oral administration in mice; assay type: in vivo, male C57BL/6 mice; details: oral 10 mg/kg
Experimental: Studies were conducted by Sai Life Sciences (Hinjewadi, Pune, India) to investigate the systemic pharmacokinetics and total colon tissue distribution of compounds of the invention following a single oral administration in male C57BL/6 mice.
A group of twenty four male mice were administered with a solution of test compound formulated at a dose of 10 mg/10 mL/kg in aqueous hydroxypropyl-β-cyclodextrin (20% w/v in water). Blood samples (approximately 60 μL) were collected from retro-orbital plexus of each mouse under light isoflurane anaesthesia such that the samples were obtained at 0.5, 1, 2, 4, 6, 8, 12 and 24 hr. The blood samples were collected from a set of three mice at each time point in a labeled micro centrifuge tube containing K2EDTA as anticoagulant. Plasma samples were separated by centrifugation at 4000 rpm for 10 min and stored below −70° C. until bioanalysis. After collection of blood sample, animals were humanely euthanized by carbon dioxide asphyxiation to collect total colon tissues. The colons were flushed with cold PBS (pH7.4) to remove contents. The total colon tissues were homogenized with cold PBS (pH7.4) of twice the weight of colon tissue and stored below −70° C. Total volume was three times the total colon tissue weights. All samples were processed for analysis by protein precipitation using acetonitrile and analyzed with a fit-for-purpose LC-MS/MS method. Pharmacokinetic parameters were calculated using the non-compartmental analysis tool of Phoenix WinNonlin® (Version 6.3).

[4] = Run 1, read-out: pH 6.5 FaSSCoF Solubility Run 1
[5] = Run 2, read-out: pH 6.5 FaSSCoF Solubility Run 2

Compound: CCc1cc(O)c(F)cc1-c1ccc2c(-c3nc4c([nH]3)CCN(C(=O)c3cnc(N5CCC[C@H]5CO)cn3)C4)n[nH]c2c1 [Example 2(h), (S)-(2-(6-(2-ethyl-5-fluoro-4-hydroxyphenyl)-1H-indazol-3-yl)-1,4,6,7-tetrahydro-5H-imidazo[4,5-c]pyridin-5-yl)(5-(2-(hydroxymethyl)pyrrolidin-1-yl)pyrazin-2-yl)methanone]
- IC50 [1]: 12.1 nM
- % viability at 1 μg/mL (Jurkat cells): 56%
- solubility thermodynamic at 24 h [2, 4]: 30 µg/mL (≈ 51.5 µM)
- solubility thermodynamic at 24 h [2, 5]: 40 µg/mL (≈ 68.7 µM)

Compound: CCc1cc(O)c(F)cc1-c1ccc2c(-c3nc4c([nH]3)CCN(C(=O)c3cnc(N(C)C5CCN(C)CC5)cn3)C4)n[nH]c2c1 [Example 1, (2-(6-(2-Ethyl-5-fluoro-4-hydroxyphenyl)-1H-indazol-3-yl)-1,4,6,7-tetrahydro-5H-imidazo[4,5-c]pyridin-5-yl)(5-(methyl(1-methylpiperidin-4-yl)amino)pyrazin-2-yl)methanone]
- IC50 [1]: 22.6 nM
- % viability at 1 μg/mL (Jurkat cells): 14%
- solubility thermodynamic at 24 h [2, 4]: 10 µg/mL (≈ 16.4 µM)
- solubility thermodynamic at 24 h [2, 5]: 10 µg/mL (≈ 16.4 µM)

Compound: CCc1cc(O)c(F)cc1-c1ccc2c(-c3nc4c([nH]3)CCN(C(=O)c3cnc(N5CCCCC5)cn3)C4)n[nH]c2c1 [Reference Compound, reference compound]
- IC50 [1]: 81.3 nM
- % viability at 1 μg/mL (Jurkat cells): 49%
- solubility thermodynamic at 24 h [2, 4]: 6 µg/mL (≈ 10.6 µM)
- solubility thermodynamic at 24 h [2, 5]: 6 µg/mL (≈ 10.6 µM)
- AUC(0-t) ([3]; male, C57BL/6, mouse, plasma, read-out: AUC0-24 h P (plasma)): 368 ng·h/mL
- Cmax ([3]; male, C57BL/6, mouse, plasma, read-out: Cmax P (plasma)): 114 ng/mL
- Cmax ([3]; male, C57BL/6, mouse, total colon tissue, total colon, read-out: Cmax C (total colon)): 3230 ng/g
- AUC0-24 h C (total colon) ([3]; total colon): 43,739 h · ng/g

Compound: CCc1cc(O)c(F)cc1-c1ccc2c(-c3nc4c([nH]3)CCN(C(=O)c3cnc(N(C)CCN5CCCS5(=O)=O)cn3)C4)n[nH]c2c1 [Example 2(v), (5-((2-(1,1-dioxidoisothiazolidin-2-yl)ethyl)(methyl)amino)pyrazin-2-yl)(2-(6-(2-ethyl-5-fluoro-4-hydroxyphenyl)-1H-indazol-3-yl)-6,7-dihydro-1H-imidazo[4,5-c]pyridin-5(4H)-yl)methanone]
- IC50 [1]: 7.5 nM
- % viability at 1 μg/mL (Jurkat cells): 82%

— patent publication US10851097B2, “4,5,6,7-tetrahydro-1H-imidazo[4,5-c]pyridine and 1,4,5,6,7,8-hexahydroimidazo[4,5-d]azepine derivatives as janus kinase inhibitors” (Topivert Pharma Limited, priority 2015, dated 2020)
